# Results from publication PMC8861431, “Tissue Pharmacokinetic Properties and Bystander Potential of Hypoxia-Activated Prodrug CP-506 by Agent-Based Modelling” (Frontiers in Pharmacology, 2022).
# Where two headings read alike, the source gives them in different places.
# Experiments:
# [1] = Cellular uptake studies / cellular PK model; format: in vitro ADME, human; settings: human, POR-overexpressing HCT-116 (POR-R) cell monolayer; Table S3, cellular PK model (extracellular instability); read-out: T1/2: time required to reduce the concentration to half its initial value (converted)
# Protocol: (§1) The intracellular/extracellular partitioning ratio for CP-506 and its major metabolites was determined in monolayer cultures of POR-overexpressing HCT-116 cells, as described previously ([Hong et al., 2018b]). Briefly, cells (5 x 10^5 per well) were seeded with 350 µl medium into 24-well plates and left to attach for 2 h in a humidified 37°C incubator. Stock solutions of CP-506 were diluted and added with 50 µl medium to the well volume to achieve a final concentration of 100 µM. Samples were harvested at various time points for up to 3 h thereafter. Aerobic experiments were performed under standard tissue culture conditions (21% O2), and the anoxic experiments in parallel in a H2/Pd-catalyst-scrubbed anaerobic chamber as described. The well volume was spiked with [^3H]-mannitol immediately before sample harvest and treated with two-volumes of ice-cold acetonitrile containing 2 µM of the deuterated (D8) internal standards for each CP-506, CP-506H and CP-506M. The cell monolayer was then treated with 100 µl of this crashing solution. Samples were stored at −80°C until LC-MS/MS analysis. The cellular exclusion of [^3H]-mannitol was used to account for the contribution of the extracellular medium toward determinations of the intracellular concentration, as described previously ([Foehrenbacher et al., 2013a]).
# (§2) An agent-based model (ABM) employing a one-dimensional approximation for monolayers was used to develop a cellular PK model, as described in further detail elsewhere ([Hong et al., 2018b]; [Mao et al., 2018]). The mathematical framework assumes that solute concentrations in the medium are dependent only on the depth (on the z coordinate) and not the lateral position (x,y) so that all cells are exposed to the same concentration of nutrients and drugs within the monolayer culture. Moreover, all cells have the same rate of metabolism and volume growth at any instance with variability allowed in cell volume, rate of cell division and cell death. Monolayer ABM simulations were performed on a desktop Windows PC (Intel core I7 processor) from a Qt (Qt Company, https://www.qt.io/) graphical user interface passing parameters to a DLL built with Fortran95. The monolayer ABM uses a finite difference method to solve reaction-diffusion equations for each compound (N) in the medium and cells. Parameters for the cellular uptake and metabolism were fitted to the concentration-time profiles of CP-506 and its metabolites in monolayer cultures of POR-R cells using a linear (first order) cell transport and metabolism model. Terms for the extracellular instability of CP-506 and its metabolites were set at their respective values in media stability studies, and media diffusion coefficients were estimated from the support membrane diffusion coefficients described below. Experimental data describing the kinetics of CP-506 uptake under aerobic conditions was fitted by adjusting the permeability coefficients kin and kout for each compound. These values were fixed for anoxic experiments to allow for parameter estimation of the rate of intracellular CP-506 metabolism (kmet0) as well as the intracellular/extracellular partitioning ratio (kin and kout) and metabolic instability (kmet0) for its cytotoxic metabolites.
# [2] = tested on: POR-overexpressing HCT-116 cells (POR-R) monolayer; assay: Cellular uptake studies / cellular PK model; format: in vitro ADME, human; settings: for k in: rate constant for transfer from the extracellular to intracellular volume / k out: rate constant for transfer from the intracellular to extracellular volume: Table 1, ABM parameter, estimated from partitioning in monolayer cultures; for kin: rate of transfer from the extracellular to the intracellular compartment / kout: rate of transfer from the intracellular to the extracellular compartment: Table S3, cellular PK model, monolayer ABM fit; for kmet: rate of metabolism to the next metabolite: Table S3, anoxic, CP-506 to CP-506H, CP-506H to CP-506M, CP-506M to CP-506M-Cl2; for Activator k met0: rate constant for the maximum rate of metabolism in POR-R cells under anoxia / kmet: rate of metabolism to the next metabolite: POR-R cells
# Protocol: as §1, §2
# HCT-116 WT cell line = assay: Monolayer clonogenic assay; format: cell-based; settings: Homo sapiens; HCT-116 WT monolayer; 4 h exposure, <1 ppm O2; read-out: Clonogenic IC50 under anoxia
# Protocol: Cells (4.8 x 10^5 cells) were seeded with 2 ml culture medium into 6-well plates and left to attach for 2 h in a humidified 37°C incubator. Compounds were then prepared in culture medium and added in a 500 µl volume to each well. Plates were returned to a humidified 37°C incubator for the duration of the drug exposure (4 h). Aerobic and anoxic experiments were performed as described above. Plates were then removed from the anaerobic chamber and processed alongside the aerobic cultures. Cells were detached from monolayer by trypsinisation and plated at serial dilutions in 6-well plates. Cells were left to grow in a standard 37°C incubator for 10 days until the controls formed discrete colonies comprised of at least 50 cells. Colonies were visualized by staining with methylene blue (2 g/L in 50% aqueous ethanol) for 30 min. The number of colonies with at least 50 cells was manually counted to determine the plating efficiency. The surviving fraction was determined as the ratio of plating efficiency of treated cells to that of the controls.
# [3] = tested on: spheroid co-cultures of POR-R activator and PORko-G target cells; assay: Spheroid growth delay assay; format: cell-based; settings: Homo sapiens, 4 h, 4 h exposure, anoxic, read-out: IC50 for inhibition of spheroid growth
# Protocol: Spheroid cultures were established by seeding 3 x 10^3 cells with 100 µl medium into ultra-low attachment, round bottom 96-well plates (Corning Inc, Corning, NY). Plates were briefly centrifuged (200 g, 5 min) to facilitate cell aggregation and grown in a standard incubator (37°C, 21% O2, 5% CO2) for 4 days before experiments. The culture medium was then aspirated, and the established spheroids taken into a H2/Pd-catalyst anaerobic chamber. Spheroids were washed three times with anoxia pre-equilibrated medium and left to settle for 1 h in a humidified 37°C incubator. Spheroids were removed from the anaerobic chamber after a 4 h drug exposure and washed three times with fresh culture medium. The growth of representative spheroids was monitored for 10 days using a published method of image analysis for volume determination ([Mao et al., 2018]). The remainder were enzymatically dissociated and plated at serial dilutions in 6-well plates containing 2 µM puromycin or 1 mg/ml geneticin for positive selection of POR-R and PORko-G cells, respectively. Colonies were visualized after 10 days of drug-free proliferation by staining with methylene blue (2 g/L in 50% aqueous ethanol) for 30 min. The number of colonies with at least 50 cells was manually counted to determine the plating efficiency. The surviving fraction was determined as the ratio of the plating efficiency of treated cells to that of the controls.
# [4] = tested on: POR-overexpressing HCT-116 cells (POR-R) monolayer; assay: Cellular uptake studies / cellular PK model; format: in vitro ADME, human; settings: aerobic 21% O2, Co range 0.3–30 µM
# [5] = tested on: POR-overexpressing HCT-116 cells (POR-R) monolayer; settings: cited from earlier work
# [6] = Table 1 footnote d: assumed equivalent to measured metabolites or derived from published estimates for PR-104A metabolites, ref Foehrenbacher et al., 2013a, Hong et al., 2018b
# [7] = Table S3, fixed to fitted values for downstream metabolites of PR-104 ('metabolite 2'), ref (2,3)
SMILES,half-life at 100 µM [1] [min],Activator k met0: rate constant for the maximum rate of metabolism in POR-R cells under anoxia [2] [min⁻¹],k in: rate constant for transfer from the extracellular to intracellular volume [2] [min⁻¹],k out: rate constant for transfer from the intracellular to extracellular volume [2] [min⁻¹],kin: rate of transfer from the extracellular to the intracellular compartment [2] [min⁻¹],kout: rate of transfer from the intracellular to the extracellular compartment [2] [min⁻¹],kmet: rate of metabolism to the next metabolite [2] [min⁻¹],IC50 (HCT-116 WT cell line) [µM],"Steady-state Ci/Ce ratio (cell uptake) ([2]; anoxic <1 ppm O2, POR-R monolayer) [fold]",IC50 ([3]; 0% activator cells) [µM],IC50 ([3]; 10% activator cells) [µM],IC50 ([3]; 50% activator cells) [µM],IC50 ([3]; 100% activator cells) [µM],Steady-state Ci/Ce ratio (cell uptake) [4] [fold],"k in: rate constant for transfer from the extracellular to intracellular volume [5, 6]","k out: rate constant for transfer from the intracellular to extracellular volume [5, 6]","T1/2: time required to reduce the concentration to half its initial value [5, 7] [min]","kin: rate of transfer from the extracellular to the intracellular compartment [5, 7] [min⁻¹]","kout: rate of transfer from the intracellular to the extracellular compartment [5, 7] [min⁻¹]",Activator k met0: rate constant for the maximum rate of metabolism in POR-R cells under anoxia ([2]; footnote d: assumed equivalent to the measured metabolites or from published PR-104A estimates)
"CCN1CCN(C(=O)c2cc(N(CCBr)CCOS(C)(=O)=O)c(S(C)(=O)=O)cc2N)CC1 [CP-506M, 2-((4-amino-5-(4-ethylpiperazine-1-carbonyl)-2-(methylsulfonyl)phenyl)(2-bromoethyl)amino)ethyl methanesulfonate]",6.6,0.1,0.9,0.4,0.9,0.4,0.1,–,–,–,–,–,–,–,–,–,–,–,–,–
"CCN1CCN(C(=O)c2cc(N(CCBr)CCOS(C)(=O)=O)c(S(C)(=O)=O)cc2NO)CC1 [CP-506H, 2-((2-bromoethyl)(5-(4-ethylpiperazine-1-carbonyl)-4-(hydroxyamino)-2-(methylsulfonyl)phenyl)amino)ethyl methanesulfonate]",12.6,0.09,0.9,0.25,0.9,0.25,0.09,–,–,–,–,–,–,–,–,–,–,–,–,–
"CCN1CCN(C(=O)c2cc(N(CCBr)CCOS(C)(=O)=O)c(S(C)(=O)=O)cc2[N+](=O)[O-])CC1 [CP-506, 2-[(2-bromoethyl)-5-[(4-ethyl-1-piperazinyl)carbonyl]-2-(methylsulfonyl)-4-nitroanilino]ethyl methanesulfonate]",1200,0.12,3.7,0.06,3.7,0.06,0.12,7.4 ± 0.5,40,> 40,13.6,5.6,2.4,50,–,–,–,–,–,–
"CCN1CCN(C(=O)c2cc(N(CCCl)CCCl)c(S(C)(=O)=O)cc2N)CC1 [CP-506M-Cl2, (2-Amino-5-(bis(2-chloroethyl)amino)-4-(methylsulfonyl)phenyl)(4-ethylpiperazin-1-yl)methanone]",–,–,–,–,–,–,–,–,–,–,–,–,–,–,0.9 ^d min^−1,0.3 ^d min^−1,6.6,0.9,0.3,0.1 ^d min^−1
